According to patent US10947237B2, “Antimicrobial compounds and methods of making and using the same” (BIOVERSYS AG, priority 2015, dated 2021):

Assays:
[1] = system: Staphylococcus aureus (S. aureus) 11540 strain; assay: standard microdilution assay, minimum inhibitory concentration (MIC); assay type: cell-based
Experimental: (§1) The in vitro activity of the compounds of the present disclosure can be determined. Antimicrobial testing is typically performed to determine the minimum inhibitory concentration (MIC). Minimum inhibitory concentrations (MICs) are determined by the microdilution method in a final volume of 100 μl according to protocols outlined by The Clinical and Laboratory Standards Institute (CLSI). Performance standards for reference strains are assessed within the same experimental design to maintain quality control. See, for example, Clinical Laboratory Standards Institute: Methods for dilution antimicrobial susceptibility tests for bacteria that grow aerobically M7-A8. Approved Standard-Eighth Edition. Wayne, Pa.: CLSI; December 2008; and Clinical Laboratory Standards Institute: Performance Standards for Antimicrobial Susceptibility Testing M100-S20; Approved Standard-Twentieth Edition. Wayne, Pa.: CLSI; June 2010. The compounds of the present disclosure were tested for antimicrobial activity. The Compounds 1-149 were run against Eschericia coli (E. Coli) strain ATCC25922 and against Staphylococcus aureus (S. aureus) 11540 strain using a standard microdilution assay to determine minimum inhibitory concentrations (MICs). […] It will be recognized by one skilled in the art that the compounds can be assessed against other bacterial organisms and that the presentation of data for activity against Eschericia coli and Staphylococcus aureus are illustrative and in no way is intended to limit the scope of the present disclosure. The compounds of the present disclosure can be assayed against a range of other microorganisms depending upon the performance activity desired to be gathered. Furthermore, the “+” and “−” representation and the selection of a cutoff value of 16 micrograms/mL is also illustrative and in no way is intended to limit the scope of the present disclosure.

[2] = system: Eschericia coli (E. Coli) strain ATCC25922; assay: as above; assay type: cell-based; settings: Escherichia coli
Experimental: as §1

Row | Compound | MIC ([1]; Table 2, 11540 strain) [µg/mL] | MIC ([2]; Table 2, strain ATCC25922) [µg/mL] | MIC ([1]; Table 2a) [µg/mL] | MIC ([2]; ATCC25922, Table 2a) [µg/mL]
1 | C[C@H](N)CCCc1cc(Cl)c(F)c(-c2cc3cn(-c4ccc([C@@H]5CCC[C@@H](CCNc6nc7ccccc7[nH]6)N5)cc4)c(=O)nc3[nH]2)c1 [Compound 43] | ≤ 16 | ≤ 16 | – | –
2 | C[C@H](N)CCCc1cc(Cl)c(F)c(-c2cc3cn(-c4ccc([C@H]5CCC[C@H](CCNc6ncccn6)N5)cc4)c(=O)nc3[nH]2)c1 [Compound 26] | ≤ 16 | > 16 | – | –
3 | C[C@H](N)CCCc1cc(Cl)c(F)c(-c2cc3cn(-c4ccc([C@H]5CCC[C@H](CCNc6nc7ccccc7[nH]6)N5)cc4)c(=O)nc3[nH]2)c1 [Compound 44] | ≤ 16 | ≤ 16 | – | –
4 | Cc1nc(NCC[C@H]2CCC[C@H](c3ccc(-n4cc5cc(-c6cc(CCC[C@H](C)N)cc(OC(F)(F)F)c6F)[nH]c5nc4=O)cc3)N2)[nH]c1C [Compound 53] | ≤ 16 | ≤ 16 | – | –
5 | C[C@H](N)CCCc1cc(Cl)c(F)c(-c2cc3cn(-c4ccc(CO[C@H](CCNC(=N)N)CNC(=N)N)cc4)c(=O)nc3[nH]2)c1 [Compound 64] | ≤ 16 | ≤ 16 | – | –
6 | C[C@H](N)CCCc1cc(Cl)c(F)c(-c2cc3cn(-c4ccc(CN[C@H](CCNC(=N)N)Cc5ncon5)cc4)c(=O)nc3[nH]2)c1 [Compound 45] | ≤ 16 | ≤ 16 | – | –
7 | Cc1nc(NCC[C@@H]2CCC[C@@H](c3ccc(-n4cc5cc(-c6cc(CCC[C@H](C)N)cc(OC(F)(F)F)c6F)[nH]c5nc4=O)cc3)N2)[nH]c1C [Compound 42] | ≤ 16 | ≤ 16 | – | –
8 | C[C@@H](CCNC(=N)N)OCc1ccc(-n2cc3cc(C4CCNC4)[nH]c3nc2=O)cc1 (some centres unmarked) [Compound 131] | > 16 | > 16 | – | –
9 | Cc1nc[nH]c1CNC[C@@H]1CCC[C@@H](c2ccc(-n3cc4cc(-c5cc(CCC[C@H](C)N)cc(Cl)c5F)[nH]c4nc3=O)cc2)N1 [Compound 11] | ≤ 16 | ≤ 16 | – | –
10 | C[C@H](N)CCCc1cc(Cl)c(F)c(-c2[nH]c3nc(=O)n(-c4ccc(CN[C@H](C)CCNC(=N)N)cc4)cc3c2[N+](=O)[O-])c1 [Compound 109] | ≤ 16 | > 16 | – | –
11 | C=C[C@@H](CCNC(=N)N)NCc1ccc(-n2cc3cc(-c4cc([C@@H]5CC[C@@H](CN)O5)cc(Cl)c4F)[nH]c3nc2=O)cc1 [Compound 141] | ≤ 16 | ≤ 16 | – | –
12 | C[C@H](N)CCCc1cc(Cl)c(F)c(-c2cc3cn(-c4ccc(CO[C@H](CCNC(=N)N)CN(C)C)cc4)c(=O)nc3[nH]2)c1 [Compound 159] | – | – | ≤ 16 | ≤ 16
13 | CC(=N)NCC[C@H]1CC(N)C[C@H](c2ccc(-n3cc4cc(-c5cc(CCC[C@H](C)N)cc(Cl)c5F)[nH]c4nc3=O)cc2)O1 (some centres unmarked) [Compound 120] | ≤ 16 | ≤ 16 | – | –
14 | C[C@H](N)CCCc1cc(Cl)c(F)c(-c2cc3cn(-c4ccc(CO[C@@H](CCNC(=N)N)CNc5nccs5)cc4)c(=O)nc3[nH]2)c1 [Compound 60] | ≤ 16 | ≤ 16 | – | –
15 | CC(=N)NCC[C@H]1CC(NC(C)=N)C[C@H](c2ccc(-n3cc4cc(-c5cc(CCC[C@H](C)N)cc(Cl)c5F)[nH]c4nc3=O)cc2)O1 (some centres unmarked) [Compound 137] | ≤ 16 | ≤ 16 | – | –
16 | C[C@H](N)CCCc1cc(Cl)c(F)c(-c2cc3cn(-c4ccc([C@@H]5C[C@@H](Nc6nccs6)C[C@@H](CCNC(=N)N)O5)cc4)c(=O)nc3[nH]2)c1 [Compound 123] | ≤ 16 | > 16 | – | –
17 | C[C@H](N)CCCc1cc(Cl)c(F)c(-c2cc3cn(-c4ccc([C@@H]5CCC[C@@H](CCNC(=N)CF)N5)cc4)c(=O)nc3[nH]2)c1 [Compound 85] | ≤ 16 | ≤ 16 | – | –
18 | C[C@H](N)CCCc1cc(Cl)c(F)c(-c2cc3cn(-c4ccc(CN[C@@H](CCN)CCNC(=N)N)cc4)c(=O)nc3[nH]2)c1 [Compound 57] | ≤ 16 | ≤ 16 | – | –
19 | C[C@H](N)CCCc1cc(Cl)c(F)c(-c2cc3cn(-c4ccc([C@@H]5CCC[C@@H](CCNC(=N)CCCCl)N5)cc4)c(=O)nc3[nH]2)c1 [Compound 28] | ≤ 16 | ≤ 16 | – | –
